The source of these data is ChEMBL document CHEMBL1287708, “Synthesis, biological evaluation and radiolabelling by 18F-fluoroarylation of a dopamine D3-selective ligand as prospective imaging probe for PET” (Bioorg Med Chem Lett, 2010).

For series [1], the system named is brain ventricle (Rattus norvegicus). Put plainly: Drug uptake in Sprague-Dawley rat brain ventricle at 9.3 MBq, iv measured after 45 mins by autoradiography in presence of 1 mg/kg BP897. The conditions noted are these: in vivo, 0.75 h.
Series [2] relates to Striatum. In words: Drug uptake in Sprague-Dawley rat striatum at 8.5 MBq, iv measured after 45 mins by autoradiography. The conditions noted are these: in vivo, 0.75 h. The class given is ADME, organism-based.
Series [3] relates to Cortex. In words: Drug uptake in Sprague-Dawley rat cortex at 9.3 MBq, iv measured after 45 mins by autoradiography in presence of 1 mg/kg BP897. Further details: dose 1 mg/kg, route intravenous. The class given is ADME, organism-based. As to conditions: in vivo, 0.75 h.
The nature of series [4]: Lipophilicity, log D of the compound in n-octanol-phosphate buffered saline at pH 7.4. It is filed as physicochemical.
The test system of series [5] is Cortex. In words: Drug uptake in Sprague-Dawley rat cortex at 8.5 MBq, iv measured after 45 mins by autoradiography. The conditions noted are these: in vivo, 0.75 h. It is filed as ADME, organism-based.
Series [6] concerns Striatum. In words: Drug uptake in Sprague-Dawley rat striatum at 9.3 MBq, iv measured after 45 mins by autoradiography in presence of 1 mg/kg BP897. The class given is ADME, organism-based. Further details: dose 1 mg/kg, route intravenous. As to conditions: in vivo, 0.75 h.
The test system of series [7] is brain ventricle (Rattus norvegicus). In words: Drug uptake in Sprague-Dawley rat brain ventricle at 8.5 MBq, iv measured after 45 mins by autoradiography. As to conditions: in vivo, 0.75 h.
For series [8], the target named is T1, D(3) dopamine receptor (Homo sapiens, UniProt P35462). In words: Agonist activity at human dopamine D3 receptor expressed in CHO dhfr-negative cells assessed as stimulation of [3H]-thymidine incorporation. The class given is functional, cell-based. In general terms: Uptake of a labelled nucleoside into DNA is a usual measure of proliferation.
Series [9] in a line: Displacement of [3H]prazosin from alpha1 adrenoceptor in porcine cerebral cortex membranes. The class given is cell membranes, Sus scrofa, Membrane.
Another series has as its target T2, D(4) dopamine receptor (Homo sapiens, UniProt P21917).
T2 sequence (P21917 whole entry): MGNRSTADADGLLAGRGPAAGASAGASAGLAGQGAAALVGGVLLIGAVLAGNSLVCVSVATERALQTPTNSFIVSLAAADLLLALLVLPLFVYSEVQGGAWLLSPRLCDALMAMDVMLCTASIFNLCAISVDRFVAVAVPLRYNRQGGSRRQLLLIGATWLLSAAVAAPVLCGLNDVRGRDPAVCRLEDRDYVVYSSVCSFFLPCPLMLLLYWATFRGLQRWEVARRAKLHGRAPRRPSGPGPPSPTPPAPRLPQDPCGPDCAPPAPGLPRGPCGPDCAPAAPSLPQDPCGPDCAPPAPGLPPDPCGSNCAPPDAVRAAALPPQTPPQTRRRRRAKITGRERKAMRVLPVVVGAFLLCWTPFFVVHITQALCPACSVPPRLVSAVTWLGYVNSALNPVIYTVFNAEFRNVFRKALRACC
Put plainly: Displacement of [3H]spiperone from human dopamine D4.4 receptor expressed in CHO cells. It is filed as cell-based. A general note: Displacement assays read how much labelled ligand stays bound in the presence of the test substance.

Series [10] concerns the target T3, D(2) dopamine receptor (Homo sapiens, UniProt P14416). Put plainly: Displacement of [3H]spiperone from human dopamine D2long receptor expressed in CHO cells. It is filed as cell-based.
The target of series [11] is T3, D(2) dopamine receptor. In words: Agonist activity at human dopamine receptor D2long expressed in CHO10001 cells assessed as stimulation of incorporation [3H]-thymidine incorporation. The class given is functional, cell-based.
Series [12] has as its target 5-hydroxytryptamine receptor 2A (Sus scrofa, UniProt P50129). Put plainly: Displacement of [3H]ketanserin from 5-HT2 receptor in porcine cerebral cortex membranes. The class given is cell membranes, Membrane.
Another series addresses D(1A) dopamine receptor (Sus scrofa, UniProt P50130). In words: Displacement of [3H][…] from dopamine D1 receptor in porcine cerebral cortex membranes. The class given is cell membranes, Membrane.
The nature of series [13]: Displacement of [3H][…] from 5-HT1A receptor in porcine cerebral cortex membranes. It is filed as cell membranes, Sus scrofa, Membrane.
The target in series [14] is T1, D(3) dopamine receptor. In words: biochemical.
Description: Displacement of [3H]spiperone from human dopamine D3 receptor expressed in CHO cells

T1 sequence (P35462 whole entry): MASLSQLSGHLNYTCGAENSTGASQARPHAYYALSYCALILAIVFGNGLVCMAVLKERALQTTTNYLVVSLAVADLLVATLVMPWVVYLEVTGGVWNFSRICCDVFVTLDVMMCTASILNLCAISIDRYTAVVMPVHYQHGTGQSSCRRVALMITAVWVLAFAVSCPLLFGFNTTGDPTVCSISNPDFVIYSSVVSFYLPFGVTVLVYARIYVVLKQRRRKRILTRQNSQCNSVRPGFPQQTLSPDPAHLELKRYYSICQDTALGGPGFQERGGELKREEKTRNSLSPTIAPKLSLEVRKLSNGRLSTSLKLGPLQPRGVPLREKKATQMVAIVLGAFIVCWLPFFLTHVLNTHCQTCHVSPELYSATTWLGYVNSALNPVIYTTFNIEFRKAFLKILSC
Chain of D(1A) dopamine receptor (P50130 whole entry): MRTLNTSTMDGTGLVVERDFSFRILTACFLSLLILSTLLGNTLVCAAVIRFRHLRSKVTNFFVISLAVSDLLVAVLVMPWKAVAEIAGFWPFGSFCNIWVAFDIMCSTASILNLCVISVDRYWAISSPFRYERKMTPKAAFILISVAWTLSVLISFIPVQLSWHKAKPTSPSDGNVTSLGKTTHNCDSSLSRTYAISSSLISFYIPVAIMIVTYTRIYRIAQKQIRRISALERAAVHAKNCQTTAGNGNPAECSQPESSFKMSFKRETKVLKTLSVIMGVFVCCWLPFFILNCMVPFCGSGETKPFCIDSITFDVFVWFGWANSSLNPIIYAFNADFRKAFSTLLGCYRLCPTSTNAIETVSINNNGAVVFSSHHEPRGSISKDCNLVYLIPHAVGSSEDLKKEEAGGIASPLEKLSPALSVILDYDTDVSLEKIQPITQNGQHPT
Chain of 5-hydroxytryptamine receptor 2A (P50129 whole entry): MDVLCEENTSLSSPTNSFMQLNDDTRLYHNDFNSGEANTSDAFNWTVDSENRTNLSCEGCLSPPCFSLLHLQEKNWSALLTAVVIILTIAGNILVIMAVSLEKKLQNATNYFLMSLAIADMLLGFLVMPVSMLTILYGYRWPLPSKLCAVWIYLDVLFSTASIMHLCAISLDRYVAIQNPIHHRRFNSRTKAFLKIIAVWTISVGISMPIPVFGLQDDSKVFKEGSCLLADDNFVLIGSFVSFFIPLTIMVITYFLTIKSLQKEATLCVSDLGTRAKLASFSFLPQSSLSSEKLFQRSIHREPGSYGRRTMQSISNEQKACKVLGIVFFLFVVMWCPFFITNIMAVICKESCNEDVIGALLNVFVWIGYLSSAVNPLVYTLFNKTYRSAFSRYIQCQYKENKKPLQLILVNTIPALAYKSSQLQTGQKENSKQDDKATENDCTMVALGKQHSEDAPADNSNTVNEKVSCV
T3 sequence (P14416 whole entry): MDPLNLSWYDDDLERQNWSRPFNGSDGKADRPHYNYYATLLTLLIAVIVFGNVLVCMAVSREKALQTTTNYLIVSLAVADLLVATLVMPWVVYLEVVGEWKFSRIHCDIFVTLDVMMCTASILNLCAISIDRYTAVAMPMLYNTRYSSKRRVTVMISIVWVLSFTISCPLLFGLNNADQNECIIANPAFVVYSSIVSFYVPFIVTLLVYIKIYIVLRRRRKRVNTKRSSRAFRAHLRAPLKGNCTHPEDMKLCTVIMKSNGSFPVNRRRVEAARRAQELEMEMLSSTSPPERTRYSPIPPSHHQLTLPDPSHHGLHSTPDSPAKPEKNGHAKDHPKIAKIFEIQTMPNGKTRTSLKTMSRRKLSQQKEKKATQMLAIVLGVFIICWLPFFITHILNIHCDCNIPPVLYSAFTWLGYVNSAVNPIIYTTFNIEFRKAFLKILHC

One may read the logD as the decadic logarithm of the distribution of all forms, ionised or not, between an organic phase and buffer at a given pH. A higher logD goes with a more lipophilic compound. Turning to `COc1ccccc1N1CCN(CCCCNC(=O)/C=C/c2ccc([18F])cc2)CC1`, the Drug uptake in series [1] turned out to be 18275 cpm/mm2; with Striatum [2] it was 28851 cpm/mm2; in the series with Cortex [3] it was 3120 cpm/mm2; with Cortex [5], 32293 cpm/mm2; with Striatum [6], 3086 cpm/mm2; in series [7], 38717 cpm/mm2. Moreover, the logD in [4] worked out at 2.07.

The term EC50 denotes the concentration at which the effect is half-maximal. As a reminder, the Ki is the dissociation constant of the complex between target and ligand, obtained from inhibition or displacement. Read a high Ki as a looser hold on the target. For the molecule `COc1ccccc1N1CCN(CCCCNC(=O)/C=C/c2ccc(F)cc2)CC1`, the EC50 at D(3) dopamine receptor [8] stood at 0.0039 µM; on D(2) dopamine receptor [11], 0.0017 µM. Also, the Ki in [9] was 0.0052 µM; on D(4) dopamine receptor it was 0.043 µM; on D(2) dopamine receptor [10], 0.027 µM; in [12] it was 0.33 µM; on D(1A) dopamine receptor, 1.1 µM; in series [13], 0.028 µM. The molecule also gave a Ki on D(3) dopamine receptor [14] of 0.00034 µM.

As for `N#[11C]c1cccc(N2CCN(CCN3CCC(C(F)(F)F)CC3)C2=O)c1`, the Ki is 0.008 µM in series [9]; 0.17 µM at D(4) dopamine receptor; 0.25 µM in series [12]; 0.27 µM at D(1A) dopamine receptor; 0.1 µM in series [13]; 0.00051 µM at D(3) dopamine receptor [14].
